In patent US20050208542A1, “Methods of genotoxicity screening, and biosensors” (priority 2004, published 2005):

Columns and labels:
ST-ds-DNA = experiment: Catalytic SWV with Ru(bpy)3^2+ of DNA(Cyt P450cam/ST-ds-DNA)2 films after incubation
Protocol: (§2) Film construction. Films were grown on PG disks (pyrolytic graphite) that had been abraded on 400 grit SiC paper, then with coarse Emery paper (3M Crystal Bay), then ultrasonicated in water for 30 seconds. Layers of ds-DNA and protein were adsorbed alternately for 15 minutes onto the rough PG electrodes, and washed with water between adsorption steps. Adsorbate solutions were: (a) 2 mg mL^−1 DNA in 5 mM pH 7.1 TRIS buffer and 0.50 M NaCl; (b) 2 mg mL^−1 PDDA in 50 mM NaCl; (c) 3 mg mL^−1 Mb in 10 mM pH 5.5 acetate buffer; and (d) 1 mg mL^−1 cyt P450cam in the pH 5.5 buffer. Film of architecture denoted PDDA/DNA(/Mb/DNA)2 or PDDA/DNA(/cyt P450cam/DNA)2 were employed.
Incubation of DNA/protein films for metabolite generation and reaction with DNA was done in a thermostated vessel at 37° C. containing 1-4% styrene (by volume). To activate the enzymes for styrene oxide formation, 0.2 to 2 mM H2O2 was added to 10 mL pH 5.5 buffer containing 50 mM NaCl. After incubation, the electrodes were rinsed with water and transferred to pH 5.5 buffer containing 50 μM Ru(bpy)3^2+ for analysis by catalytic SWV.
(§3) Voltammetry. CH Instruments 660A and CH 430 electrochemical analyzers were used for square wave voltammetry (SWV), with ˜95% ohmic drop compensated. […]

ds-DNA [1] = experiment: SWV with Co(bpy)3^3+ electroactive probe, PDDA/ds-DNA(/Mb/ds-DNA)2 films; format: biochemical, calf thymus (CT), salmon testes (ST)
Protocol: as §2
(§4) Incubation of DNA/protein films for metabolite generation and reaction with DNA was done in a thermostated vessel at 37° C. containing 1-4% styrene (by volume). To activate the enzymes for styrene oxide formation, 0.2 to 2 mM H2O2 was added to 10 mL pH 5.5 buffer containing 50 mM NaCl. […] For the probe binding method, washed electrodes were transferred to pH 5.5 buffer containing 20 μM Co(bpy)3^3+.
as §3
(§5) The time course of the reaction can readily be monitored via the ratio of initial SWV peak current for a given film (Ip,i) to that after reaction (Ip,f). […]

ds-DNA [2] = experiment: Catalytic SWV with Ru(bpy)3^2+ of PDDA/ds-DNA(/Mb/ds-DNA)2 films after incubation; format: biochemical, calf thymus (CT), salmon testes (ST)
ds-CT-DNA = experiment: SWV with Co(bpy)3^3+ electroactive probe, PDDA/ds-CT-DNA(cyt P450cam/ds-CT-DNA)2 films; conditions: 4% styrene + 2 mM H2O2
Protocol: as §2, §4
CH Instruments 660A and CH 430 electrochemical analyzers were used for square wave voltammetry (SWV), with ˜95% ohmic drop compensated. […]
as §5

CT-ds-DNA = experiment: SWV of Ru/Mb/DNA films (PSS/ClRu-PVP/CT-ds-DNA/(Mb/CT-ds-DNA)2) after incubation; conditions: for SWV peak current at 0.75 V: saturated styrene or toluene and H2O2, pH 5.5
poly[G] = experiment: ECL/SWV of (Ru-PVP/poly[G])2 films after incubation; format: biochemical; conditions: 10 minutes incubation, saturated solution
Protocol: Reactions with Styrene Oxide.
In addition to catalytic oxidation of guanines, it is possible that adducts formed on DNA by reaction with styrene oxide could be catalytically oxidized by the ruthenium metallopolymer. To assess this possibility, styrene oxide was incubated with films containing individual polynucleotides and the metallopolymer. […] An 80% increase in SWV peak current and a 40% increase in ECL intensity was found.

ds-CT DNA = experiment: ECL/SWV of (Ru-PVP/ds-DNA)2 films after incubation; conditions: saturated solution, 37° C., pH 5.5
Protocol: Film assembly. DNA-redox polymer films were constructed by the layer-by-layer electrostatic assembly method. Basal plane PG electrodes were polished with 400 grit SiC paper and then with 0.3 μm α-alumina slurries on Buehler Microcloth, washed with water, sonicated in ethanol for 15 minutes, and then sonicated in water for 15 minutes. Layers were constructed by placing a 30 μL drop of 0.2% aqueous [Ru(bpy)2(PVP)10](CIO4)2 onto each PG electrode, allowing 15 minutes to achieve saturated adsorption and then washing with water. Subsequently, 30 μL of DNA solution (2 mg mL^−1 DNA in 5 mM pH 5.5 acetate buffer+0.05 M NaCl) was place on this PG surface, allowed to adsorb 15 min, and then washed with water. This sequence was repeated to obtain films with 2 redox polymer/DNA bilayers. Films containing ss-DNA and other polynucleotides were also assembled in this way. Assembly of films was monitored at each step with a quartz crystal microbalance.
Reactions with Styrene Oxide. Incubations of films were done in styrene oxide solutions in a stirred reactor at 37.0±0.5° C. […] PG electrodes coated with polynucleotide or DNA films were incubated in the stirred emulsion and then rinsed with water and transferred to the electro-chemical cell containing pH 5.5 buffer for SWV/ECL analysis.
Error bars in FIGS. 22, 23 are mainly the result of electrode-to-electrode variability.

ds-ST-DNA = experiment: HPLC-MS/MS of hydrolyzed DNA reacted with styrene oxide; format: biochemical, salmon testes; conditions: ds-ST-DNA incubated with styrene oxide 48 hours at 37° C., HPLC-MS/MS (MRM)
Protocol: (§1) Capillary electrophoretic analysis. A Beckman PACE 5000 with UV detector at 254 nm was used for capillary electrophoresis (CE) to analyze hydrolyzed DNA that had been reacted with styrene oxide. 1 mg mL^−1 ST ds-DNA in 50 mL buffer or (PDDA/DNA)2 films on 3×10 cm carbon cloth in solution were reacted in 50 mL buffer and 0.87 mmol styrene oxide at 37° C. with stirring. Reacted DNA in solution or in films was hydrolyzed by incubating with deoxyribonuclease I (0.1 mg per mg of DNA) for 20 hr at 37° C., followed by incubation with phosphodiesterase I (0.01 unit/mg DNA) and phosphatase, alkaline (0.6 unit/mg DNA) for 5 hours at 37° C. The resulting samples, consisting mainly of individual nucleosides, were analyzed using CE with 20 mM pH 7 phosphate buffer and 100 mM SDS. The capillary was 75 μm×50 cm, with a polyimide coating. To make standard styrene oxide adducts, 0.5 mg mL^−1 guanosine or adenosine were reacted with styrene oxide.
Liquid chromatography (LC)-mass spectrometry (MS). A Perkin-Elmer LC with diode-array (255 nm and 280 nm) and mass spectrometer (Micromass, Quattro II) detection were used. Full-scan spectra were taken at low cone voltage (15 V) in the positive ion mode (ESI). The HPLC column was Restek Ultra C-18 reversed-phase (i. d. 2.1 mm, length 10 cm, particle size 5 μm). Solvents were A: 5% acetonitrile/95% water with 0.05% TFA and B: 100% acetonitrile with 0.05% TFA. […]

ST ds-DNA = experiment: Capillary electrophoretic analysis of hydrolyzed DNA reacted with styrene oxide; format: biochemical, salmon testes; conditions: (PDDA/DNA)2 film on carbon cloth, saturated styrene oxide, 48 hr, 37° C., compared with undamaged hydrolyzed DNA
Protocol: as §1
It was previously shown that that styrene oxide is formed from styrene using Mb and cyt P450cam films. However, available capillary electrophoresis and HPLC-MS/MS methods were not sensitive enough to detect and identify damaged DNA directly from the protein-DNA films. Thus, capillary electrophoresis and HPLC-MS were used to confirm that reaction of styrene oxide with DNA in (PDDA/DNA)2 films and in solution gave the reported DNA-styrene oxide adducts. […]

| Rate of increase of SWV peak current, less than with Mb/ST-DNA films (ST-ds-DNA; cyt P450cam films versus Mb/ST-DNA films, styrene and hydrogen peroxide) | Ip,i/Ip,f peak current ratio vs. reaction time (ds-DNA [1]; Mb films, 4% styrene or 4% toluene + 2 mM hydrogen peroxide, over 45 min) | SWV peak height for reduction of Co(bpy)3^3+ at 0.04 V vs. SCE (ds-DNA [1]; Mb/ST-ds-DNA films, 4% styrene and 2 mM H2O2, 37° C., pH 5.5, 20 μM Co(bpy)3^3+) | Slope of Ip,i/Ip,f peak ratio vs. time, compared with Mb films (ds-CT-DNA) | SMILES | SWV catalytic peak current (DNA damage) (ST-ds-DNA; cyt P450cam/ST-ds-DNA films, 2% styrene + 0.2 mM H2O2, 50 μM Ru(bpy)3^2+) | Dependence of catalytic SWV peak height on styrene concentration (ds-DNA [2]; Mb/DNA films activated by H2O2, styrene 1-4%) | Catalytic SWV oxidation peak current (DNA damage) (ds-DNA [2]; Mb/DNA films, 37° C., pH 5.5, with 0.2 mM H2O2, 2% styrene, 2% toluene or 0.2 mM benzaldehyde, read in 50 μM Ru(bpy)3^2+) | Catalytic SWV oxidation peak current (DNA damage) (ds-DNA [2]; ST-DNA/Mb films, 2% styrene but no H2O2) | Ratio of final peak current after incubation to initial peak current (CT-ds-DNA; saturated styrene and H2O2, pH 5.5) | SWV peak current at 0.75 V (CT-ds-DNA) | Increase in ECL intensity (poly[G]) | Increase in SWV peak current (poly[G]) | ECL peak vs. incubation time (ds-CT DNA) | SWV peak vs. incubation time (ds-CT DNA) | Number of styrene oxide adducts each for dA and dG (ds-ST-DNA) | DNA-styrene oxide adduct peaks in capillary electropherogram (ST ds-DNA) |
| --- | --- | --- | --- | --- | --- | --- | --- | --- | --- | --- | --- | --- | --- | --- | --- | --- |
| about 30% | linear increases | decreased with incubation time | smaller slopes | C=Cc1ccccc1 [styrene] | rapid increase in SWV peak current for the first five minutes was followed by a slower increase from 5-30 minutes | did not depend on styrene concentration between 1-4% | increased with reaction time | No significant increases in peak current or trends with incubation time | showed an increase over the first 15 minutes and then decreased gradually | increased | – | – | – | – | – | – |
| – | – | – | – | Cc1ccccc1 [toluene] | – | – | – | – | – | did not show increases | nearly identical to initial values | nearly identical to initial values | showed no trends with incubation time | showed no trends with incubation time | – | – |
| – | – | – | – | c1ccc(C2CO2)cc1 (stereo not drawn) [styrene oxide] | – | – | – | – | – | – | 40% | 80% | increases in the ECL and the SWV peaks were observed with increasing incubation time | increases in the ECL and the SWV peaks were observed with increasing incubation time | at least 4 | new peaks evident |
